Assay [1] has as its target T1, isolated recombinant JAK2 kinase domain (Homo sapiens, UniProt O60674).
T1 construct: The activity of the isolated recombinant JAK1 and JAK2 kinase domain was measured
Put plainly: JAK2 enzyme assay (Caliper LabChip, Ki). Type of assay: biochemical. The note with it: 25 μM ATP. The method in brief:
(§1)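 Phosphorylation of a fluorescent JAK3-derived dodecapeptide by recombinant human JAK1 or JAK2 catalytic domain is monitored through electrophoretic product/substrate separation. Incubation lasts 30 minutes at 22° C; EDTA quench. Morrison-model Ki values account for ATP competition.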

For assay [2], the system named is JAK1-dependent STAT6 phosphorylation downstream of IL-13 stimulation in BEAS-2B human bronchial epithelial cells. Put plainly: JAK1 pathway assay in BEAS-2B cells (IL-13 stimulated STAT6 phosphorylation, MSD). Type of assay: cell-based. The conditions noted are these: read-out: P-STAT6 BEAS2B + IL13 IC50. The method in brief:
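BEAS-2B human bronchial epithelial cells, plated the day before in complete growth medium, were preincubated with compound for 1 hr at 37° C (0.2% DMSO final), then stimulated with IL-13 at its EC90 for 15 min. STAT6 phosphorylation in lysates was read by MSD; EC50 was taken as 50% inhibition versus DMSO control.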

In assay [3] the target is T2, isolated recombinant JAK1 kinase domain (Homo sapiens, UniProt P23458).
T2 construct: The activity of the isolated recombinant JAK1 and JAK2 kinase domain was measured
Put plainly: JAK1 enzyme assay (Caliper LabChip, Ki). The assay is classed as biochemical. The conditions noted are these: recombinant JAK1 kinase domain, 25 μM ATP. An outline of the steps: as §1

T1 sequence (O60674 849-1124 limits assumed): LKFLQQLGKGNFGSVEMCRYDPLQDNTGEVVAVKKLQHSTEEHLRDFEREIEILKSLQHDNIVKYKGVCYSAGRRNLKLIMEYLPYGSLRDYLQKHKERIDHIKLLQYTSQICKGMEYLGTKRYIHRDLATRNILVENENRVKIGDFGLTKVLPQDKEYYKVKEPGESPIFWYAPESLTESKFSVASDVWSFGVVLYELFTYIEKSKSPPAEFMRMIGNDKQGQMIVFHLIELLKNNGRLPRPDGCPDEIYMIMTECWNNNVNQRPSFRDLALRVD
T2 sequence (P23458 875-1153 limits assumed): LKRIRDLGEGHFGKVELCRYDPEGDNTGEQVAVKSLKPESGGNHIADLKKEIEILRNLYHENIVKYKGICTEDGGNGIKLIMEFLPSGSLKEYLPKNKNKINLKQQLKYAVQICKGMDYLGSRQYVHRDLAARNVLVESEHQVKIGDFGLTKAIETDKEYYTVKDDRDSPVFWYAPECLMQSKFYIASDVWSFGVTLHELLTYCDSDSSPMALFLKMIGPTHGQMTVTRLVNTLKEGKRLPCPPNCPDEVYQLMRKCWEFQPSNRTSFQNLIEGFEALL

As to `CNC(=O)[C@@H]1CCCN1C1CCN(C(=O)Cn2cc(NC(=O)c3cnn4cccnc34)c(-c3cc(SC(C)C)ccc3OC(F)F)n2)CC1` [Example 145, N-[3-[2-(difluoromethoxy)-5-isopropylsulfanyl-phenyl]-1-[2-[4-[(2S)-2-(methylcarbamoyl)pyrrolidin-1-yl]-1-piperidyl]-2-oxo-ethyl]pyrazol-4-yl]pyrazolo[1,5-a]pyrimidine-3-carboxamide], the values for the Ki in assay [1] and in assay [3] were 1.6 nM and 0.6 nM, respectively. Moreover, the IC50 in assay [2] was 100 nM.

As to `CC(C)Sc1ccc(OC(F)F)c(-c2nn(CC(=O)N3CCC(N4CCn5ccnc5C4)CC3)cc2NC(=O)c2cnn3cccnc23)c1` [Example 146, N-[3-[2-(difluoromethoxy)-5-isopropylsulfanyl-phenyl]-1-[2-[4-(6,8-dihydro-5H-imidazo[1,2-a]pyrazin-7-yl)-1-piperidyl]-2-oxo-ethyl]pyrazol-4-yl]pyrazolo[1,5-a]pyrimidine-3-carboxamide], the figures for the Ki in assay [1] and in assay [3] were 0.72 nM and 0.37 nM, respectively. For the same molecule, in assay [2], the IC50 came to 170 nM.

For `CC(C)Sc1ccc(OC(F)F)c(-c2nn(CC(=O)N3CCC(N(CCN4CCOCC4)C4COC4)CC3)cc2NC(=O)c2cnn3cccnc23)c1` [Example 147, N-[3-[2-(difluoromethoxy)-5-isopropylsulfanyl-phenyl]-1-[2-[4-[2-morpholinoethyl(oxetan-3-yl)amino]-1-piperidyl]-2-oxo-ethyl]pyrazol-4-yl]pyrazolo[1,5-a]pyrimidine-3-carboxamide], the results for the Ki in assay [1] and in assay [3] were 1.8 nM and 0.73 nM, respectively. Also, the IC50 in assay [2] was 1000 nM.

In the case of `CC(C)Sc1ccc(OC(F)F)c(-c2nn(Cc3cn(C4CCN(C5COC5)CC4)nn3)cc2NC(=O)c2cnn3cccnc23)c1` [Example 148, N-[3-[2-(difluoromethoxy)-5-isopropylsulfanyl-phenyl]-1-[[1-[1-(oxetan-3-yl)-4-piperidyl]triazol-4-yl]methyl]pyrazol-4-yl]pyrazolo[1,5-a]pyrimidine-3-carboxamide], the inhibition constant Ki in assay [1] is 0.24 nM; in assay [3], 0.4 nM. Further, the IC50 in assay [2] is 55 nM.

On to `CC(C)Sc1ccc(OC(F)F)c(-c2nn(CC(=O)N3CCC(N4CCO[C@H](CO)C4)CC3)cc2NC(=O)c2cnn3cccnc23)c1` [Example 149, N-[3-[2-(difluoromethoxy)-5-isopropylsulfanyl-phenyl]-1-[2-[4-[(2S)-2-(hydroxymethyl)morpholin-4-yl]-1-piperidyl]-2-oxo-ethyl]pyrazol-4-yl]pyrazolo[1,5-a]pyrimidine-3-carboxamide], for which the Ki is 1.2 nM in assay [1] and 0.52 nM in assay [3]. Moreover, the IC50 in assay [2] is 50 nM.

For the molecule `COC(=O)N1CCN(CC2CCN(C(=O)Cn3cc(NC(=O)c4cnn5cccnc45)c(-c4cc(SC(C)C)ccc4OC(F)F)n3)CC2)CC1` [Example 150, methyl 4-[[1-(2-[3-[2-(difluoromethoxy)-5-(propan-2-ylsulfanyl)phenyl]-4-[pyrazolo[1,5-a]pyrimidine-3-amido]-1H-pyrazol-1-yl]acetyl)piperidin-4-yl]methyl]piperazine-1-carboxylate], the values for the Ki in assay [1] and in assay [3] were 1.4 nM and 0.6 nM, respectively. For the same molecule, in assay [2], the IC50 stood at 15 nM.

As to `CC(C)Sc1ccc(OC(F)F)c(-c2nn(CC(=O)N3CCC(C(=O)N4CCNCC4)CC3)cc2NC(=O)c2cnn3cccnc23)c1` [Example 151, N-[3-[2-(difluoromethoxy)-5-isopropylsulfanyl-phenyl]-1-[2-oxo-2-[4-(piperazine-1-carbonyl)-1-piperidyl]ethyl]pyrazol-4-yl]pyrazolo[1,5-a]pyrimidine-3-carboxamide], the Ki came out at 2.3 nM in assay [1] and 0.54 nM in assay [3]. The IC50 in assay [2] was determined as 960 nM.

As usually defined, the Ki is a dissociation constant, usually derived from enzyme kinetics or from competition with a known ligand. Usually IC50 stands for the concentration at which inhibition is half-maximal.

The record behind these values is patent US20180265515A1 (Genentech, Inc., priority 2015, published 2018).
